In patent US7074789B2, “Kinase inhibitors” (Amgen Inc., priority 1999, dated 2006):

Assays:
Assay type in all cases: biochemical
[1] = molecular target: T1, Lck (Homo sapiens, UniProt P06239); test: Kinase inhibition assay (33P transfer), Lck; settings: read-out: Lck-1
T1 construct: Kinases are expressed as either kinase domains or full length constructs; made in house
Outline: (§1)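 Enzyme activity is taken as the amount of 33PO4 moved from ATP onto poly(Glu, Tyr) 4:1 or poly(Arg, Ser) 3:1 fixed to the plate surface. Unbound label is removed with 0.5% phosphoric acid before scintillation counting.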

[2] = molecular target: T2, Lyn (Homo sapiens, UniProt P07948); test: Kinase inhibition assay (33P transfer), Lyn; settings: Table 6, Lyn-1 kinase inhibition class
T2 construct: Kinases are expressed as either kinase domains or full length constructs; made in house
Outline: (§2)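 IC50: inhibitor concentration lowering 33P incorporation into immobilised substrate by 50%. Label transferred from ATP to poly(Glu,Tyr) 4:1 or poly(Arg,Ser) 3:1 is measured after a 0.5% phosphoric acid wash by liquid scintillation.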

[3] = molecular target: T3, Src (Homo sapiens, UniProt P12931); test: Kinase inhibition assay (33P transfer), Src; settings: Table 6, Src-1 kinase inhibition class
T3 construct: Kinases are expressed as either kinase domains or full length constructs; made in house
T3 sequence (P12931 whole entry, species assumed, the tested form may be a part): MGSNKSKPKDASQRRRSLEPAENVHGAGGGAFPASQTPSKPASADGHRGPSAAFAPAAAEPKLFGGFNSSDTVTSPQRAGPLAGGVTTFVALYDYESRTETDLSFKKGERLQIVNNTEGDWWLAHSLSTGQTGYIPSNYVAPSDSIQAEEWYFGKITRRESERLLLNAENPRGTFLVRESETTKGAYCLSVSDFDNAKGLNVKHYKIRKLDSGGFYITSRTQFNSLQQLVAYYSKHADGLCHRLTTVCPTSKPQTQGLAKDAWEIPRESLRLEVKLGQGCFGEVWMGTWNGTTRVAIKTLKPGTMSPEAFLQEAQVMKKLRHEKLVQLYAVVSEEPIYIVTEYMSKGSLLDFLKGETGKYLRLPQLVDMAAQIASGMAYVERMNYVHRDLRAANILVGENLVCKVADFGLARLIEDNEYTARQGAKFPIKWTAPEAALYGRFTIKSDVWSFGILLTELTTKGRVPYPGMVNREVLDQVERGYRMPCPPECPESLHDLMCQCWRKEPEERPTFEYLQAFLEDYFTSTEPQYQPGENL
Outline: as §2

[4] = molecular target: T4, Fyn (Homo sapiens, UniProt P06241); test: Kinase inhibition assay (33P transfer), Fyn; settings: read-out: Fyn-1
T4 construct: Kinases are expressed as either kinase domains or full length constructs; made in house
T4 sequence (P06241 whole entry, species assumed, the tested form may be a part): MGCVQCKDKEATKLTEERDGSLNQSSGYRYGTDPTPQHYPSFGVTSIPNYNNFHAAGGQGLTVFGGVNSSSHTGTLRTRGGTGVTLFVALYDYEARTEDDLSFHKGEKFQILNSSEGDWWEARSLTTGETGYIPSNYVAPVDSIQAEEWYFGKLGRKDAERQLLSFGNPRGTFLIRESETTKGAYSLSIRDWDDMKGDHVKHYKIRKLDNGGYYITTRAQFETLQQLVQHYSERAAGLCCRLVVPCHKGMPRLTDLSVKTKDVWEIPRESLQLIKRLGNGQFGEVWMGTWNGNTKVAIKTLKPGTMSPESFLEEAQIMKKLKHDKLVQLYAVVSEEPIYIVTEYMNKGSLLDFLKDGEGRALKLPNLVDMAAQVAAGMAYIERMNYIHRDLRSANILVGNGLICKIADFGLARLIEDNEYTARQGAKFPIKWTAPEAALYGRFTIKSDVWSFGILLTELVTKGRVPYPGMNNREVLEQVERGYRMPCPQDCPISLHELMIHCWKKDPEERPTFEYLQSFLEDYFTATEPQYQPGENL
Outline: as §2

[5] = molecular target: T5, Zap-70 (Homo sapiens, UniProt P43403); test: Kinase inhibition assay (33P transfer), Zap-70; settings: read-out: Zap-1
T5 construct: Kinases are expressed as either kinase domains or full length constructs; made in house
T5 sequence (P43403 1-619): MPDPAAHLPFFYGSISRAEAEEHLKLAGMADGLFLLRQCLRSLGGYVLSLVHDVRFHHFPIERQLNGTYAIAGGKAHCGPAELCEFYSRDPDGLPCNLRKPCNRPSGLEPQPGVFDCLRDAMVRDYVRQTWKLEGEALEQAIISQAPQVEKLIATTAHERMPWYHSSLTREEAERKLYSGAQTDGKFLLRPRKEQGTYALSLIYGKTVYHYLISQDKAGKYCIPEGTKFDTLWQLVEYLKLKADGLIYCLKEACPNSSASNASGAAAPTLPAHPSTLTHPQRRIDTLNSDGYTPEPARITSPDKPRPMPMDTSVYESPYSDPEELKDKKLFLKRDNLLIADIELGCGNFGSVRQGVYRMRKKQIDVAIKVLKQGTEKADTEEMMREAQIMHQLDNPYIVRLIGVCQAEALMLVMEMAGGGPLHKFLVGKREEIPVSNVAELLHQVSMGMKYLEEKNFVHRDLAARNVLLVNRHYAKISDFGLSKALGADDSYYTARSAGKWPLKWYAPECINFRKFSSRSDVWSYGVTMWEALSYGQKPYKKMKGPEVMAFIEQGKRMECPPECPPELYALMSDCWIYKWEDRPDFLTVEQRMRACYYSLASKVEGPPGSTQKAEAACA
Outline: as §1

[6] = molecular target: T6, Itk (Homo sapiens, UniProt Q08881); test: Kinase inhibition assay (33P transfer), Itk; settings: read-out: Itk-1
T6 construct: Kinases are expressed as either kinase domains or full length constructs; made in house
T6 sequence (Q08881 1-620): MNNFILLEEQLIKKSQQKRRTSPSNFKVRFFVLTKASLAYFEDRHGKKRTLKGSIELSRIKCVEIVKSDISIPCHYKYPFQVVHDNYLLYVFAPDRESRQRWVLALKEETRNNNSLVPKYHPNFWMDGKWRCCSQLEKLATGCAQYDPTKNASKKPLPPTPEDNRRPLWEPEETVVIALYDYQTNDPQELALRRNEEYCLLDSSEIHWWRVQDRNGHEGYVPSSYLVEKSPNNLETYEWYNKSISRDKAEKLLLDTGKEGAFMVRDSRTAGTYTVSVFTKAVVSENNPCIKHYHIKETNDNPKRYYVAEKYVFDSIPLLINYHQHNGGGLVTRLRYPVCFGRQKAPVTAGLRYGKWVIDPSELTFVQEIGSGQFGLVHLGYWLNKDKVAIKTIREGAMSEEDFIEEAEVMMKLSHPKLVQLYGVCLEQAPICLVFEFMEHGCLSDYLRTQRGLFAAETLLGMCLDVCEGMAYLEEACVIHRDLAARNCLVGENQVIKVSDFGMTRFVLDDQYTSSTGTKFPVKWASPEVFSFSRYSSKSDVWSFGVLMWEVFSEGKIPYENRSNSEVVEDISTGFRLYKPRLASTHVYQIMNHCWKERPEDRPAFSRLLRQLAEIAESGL
Outline: as §2

[7] = molecular target: T7, EGFR (Homo sapiens, UniProt P00533); test: Kinase inhibition assay (33P transfer), EGFR; settings: Table 2, kinase inhibition class; read-out: EGFR-1
T7 construct: Kinases are expressed as either kinase domains or full length constructs; made in house
T7 sequence (P00533 25-1210, species assumed): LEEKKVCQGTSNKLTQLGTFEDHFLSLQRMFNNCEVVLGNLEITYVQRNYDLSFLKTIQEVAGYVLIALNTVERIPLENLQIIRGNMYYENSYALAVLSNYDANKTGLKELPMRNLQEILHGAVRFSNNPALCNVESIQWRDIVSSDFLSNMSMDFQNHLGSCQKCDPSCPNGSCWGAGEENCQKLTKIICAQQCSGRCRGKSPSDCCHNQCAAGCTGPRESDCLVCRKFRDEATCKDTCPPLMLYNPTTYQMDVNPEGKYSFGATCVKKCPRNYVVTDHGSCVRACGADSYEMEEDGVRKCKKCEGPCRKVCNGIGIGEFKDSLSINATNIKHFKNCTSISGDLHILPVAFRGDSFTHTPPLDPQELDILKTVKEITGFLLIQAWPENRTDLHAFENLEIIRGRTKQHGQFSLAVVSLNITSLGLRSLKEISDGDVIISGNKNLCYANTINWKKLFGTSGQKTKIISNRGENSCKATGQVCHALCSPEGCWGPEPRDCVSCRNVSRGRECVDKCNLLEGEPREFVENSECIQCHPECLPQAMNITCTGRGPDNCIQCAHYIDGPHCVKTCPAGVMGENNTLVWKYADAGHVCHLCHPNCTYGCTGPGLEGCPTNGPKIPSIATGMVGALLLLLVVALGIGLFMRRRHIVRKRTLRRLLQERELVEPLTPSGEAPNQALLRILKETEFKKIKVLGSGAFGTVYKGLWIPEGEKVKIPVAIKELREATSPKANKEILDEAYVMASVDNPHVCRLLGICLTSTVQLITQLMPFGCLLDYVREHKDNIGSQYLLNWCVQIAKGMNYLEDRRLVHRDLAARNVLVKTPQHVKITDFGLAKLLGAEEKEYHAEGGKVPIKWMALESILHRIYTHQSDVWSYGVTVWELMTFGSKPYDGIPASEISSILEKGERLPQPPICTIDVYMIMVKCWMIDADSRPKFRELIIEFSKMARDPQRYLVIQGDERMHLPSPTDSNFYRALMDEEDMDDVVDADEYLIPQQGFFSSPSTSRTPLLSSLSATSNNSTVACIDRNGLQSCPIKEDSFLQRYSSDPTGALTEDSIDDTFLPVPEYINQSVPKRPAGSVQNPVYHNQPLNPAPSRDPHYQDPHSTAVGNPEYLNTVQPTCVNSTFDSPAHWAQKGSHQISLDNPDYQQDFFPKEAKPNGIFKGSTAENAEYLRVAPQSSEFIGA
Outline: as §2

[8] = molecular target: T8, ErbB2 (Homo sapiens, UniProt P04626); test: Kinase inhibition assay (33P transfer), ErbB2; settings: read-out: ErbB2-2
T8 construct: Kinases are expressed as either kinase domains or full length constructs; made in house
T8 sequence (P04626 23-1255, species assumed): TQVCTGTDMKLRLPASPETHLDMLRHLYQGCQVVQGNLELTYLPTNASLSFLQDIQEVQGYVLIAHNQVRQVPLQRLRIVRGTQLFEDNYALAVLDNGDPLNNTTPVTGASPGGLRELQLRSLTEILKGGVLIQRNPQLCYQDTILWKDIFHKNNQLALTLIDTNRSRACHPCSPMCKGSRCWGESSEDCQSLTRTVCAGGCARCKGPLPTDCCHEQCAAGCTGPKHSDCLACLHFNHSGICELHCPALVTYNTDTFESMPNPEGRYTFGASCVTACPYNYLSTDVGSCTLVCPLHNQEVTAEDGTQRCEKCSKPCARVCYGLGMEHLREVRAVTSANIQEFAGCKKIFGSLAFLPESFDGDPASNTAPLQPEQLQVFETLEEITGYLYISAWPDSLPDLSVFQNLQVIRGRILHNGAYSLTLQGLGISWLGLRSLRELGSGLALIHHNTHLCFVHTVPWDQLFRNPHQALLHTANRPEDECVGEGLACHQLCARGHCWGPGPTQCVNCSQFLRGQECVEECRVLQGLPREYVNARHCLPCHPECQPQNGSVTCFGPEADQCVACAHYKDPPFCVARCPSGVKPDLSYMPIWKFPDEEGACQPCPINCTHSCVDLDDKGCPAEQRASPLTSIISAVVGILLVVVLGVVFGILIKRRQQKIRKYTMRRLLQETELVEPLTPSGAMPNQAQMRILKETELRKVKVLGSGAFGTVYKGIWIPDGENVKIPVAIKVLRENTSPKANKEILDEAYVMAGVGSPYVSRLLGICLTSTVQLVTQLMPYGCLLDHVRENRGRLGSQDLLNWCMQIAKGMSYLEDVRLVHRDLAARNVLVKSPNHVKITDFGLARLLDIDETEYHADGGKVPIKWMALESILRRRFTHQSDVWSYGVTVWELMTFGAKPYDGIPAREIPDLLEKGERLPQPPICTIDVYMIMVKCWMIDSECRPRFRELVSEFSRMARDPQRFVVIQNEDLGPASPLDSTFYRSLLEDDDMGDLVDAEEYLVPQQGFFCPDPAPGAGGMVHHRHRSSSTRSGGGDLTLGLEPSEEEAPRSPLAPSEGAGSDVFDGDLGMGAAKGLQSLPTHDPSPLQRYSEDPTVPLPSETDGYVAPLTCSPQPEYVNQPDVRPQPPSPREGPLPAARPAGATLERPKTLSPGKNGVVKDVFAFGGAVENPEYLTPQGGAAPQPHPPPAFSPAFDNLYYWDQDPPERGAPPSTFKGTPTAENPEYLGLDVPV
Outline: as §2

[9] = molecular target: T9, Kdr (Homo sapiens, UniProt P35968); test: Kinase inhibition assay (33P transfer), Kdr; settings: read-out: KDR-1
T9 construct: Kinases are expressed as either kinase domains or full length constructs; made in house
Outline: as §1

[10] = molecular target: T10, Flt-1 (Homo sapiens, UniProt P17948); test: Kinase inhibition assay (33P transfer), Flt-1
T10 construct: Kinases are expressed as either kinase domains or full length constructs; made in house
Outline: as §2

[11] = molecular target: T11, Tek (Homo sapiens, UniProt Q02763); test: Kinase inhibition assay (33P transfer), Tek; settings: read-out: Tek-1
T11 construct: Kinases are expressed as either kinase domains or full length constructs; made in house
Outline: as §2

[12] = molecular target: T12, c-Met (Homo sapiens, UniProt P08581); test: Kinase inhibition assay (33P transfer), c-Met; settings: Table 2, kinase inhibition class; read-out: Met-1
T12 construct: Kinases are expressed as either kinase domains or full length constructs; made in house
Outline: as §2

[13] = molecular target: T13, AKT (Homo sapiens, UniProt Q9Y243); test: Kinase inhibition assay (33P transfer), AKT; settings: Table 2, kinase inhibition class; read-out: AKT3-1
T13 construct: Kinases are expressed as either kinase domains or full length constructs; made in house
Outline: as §1

[14] = molecular target: T14, IGFR-1 (Homo sapiens, UniProt P08069); test: Kinase inhibition assay, IGFR-1 (Table 2); settings: Table 2, kinase inhibition class
T14 construct: Kinases are expressed as either kinase domains or full length constructs; made in house

[15] = molecular target: T15, PDGFRB (Homo sapiens, UniProt P09619); test: Kinase inhibition assay (33P transfer), PDGFRB; settings: read-out: PDGFRB-1
T15 construct: Kinases are expressed as either kinase domains or full length constructs; made in house

[16] = molecular target: T16, Hck-1 (Homo sapiens, UniProt P08631); test: Kinase inhibition assay (33P transfer), Hck; settings: Table 6, Hck-1 kinase inhibition class
T16 construct: Kinases are expressed as either kinase domains or full length constructs; made in house

[17] = molecular target: T17, ErbB4 (Homo sapiens, UniProt Q15303); test: Kinase inhibition assay (33P transfer), ErbB4; settings: read-out: ErbB4-1
T17 construct: Kinases are expressed as either kinase domains or full length constructs; made in house
T17 sequence (Q15303 26-1308, species assumed): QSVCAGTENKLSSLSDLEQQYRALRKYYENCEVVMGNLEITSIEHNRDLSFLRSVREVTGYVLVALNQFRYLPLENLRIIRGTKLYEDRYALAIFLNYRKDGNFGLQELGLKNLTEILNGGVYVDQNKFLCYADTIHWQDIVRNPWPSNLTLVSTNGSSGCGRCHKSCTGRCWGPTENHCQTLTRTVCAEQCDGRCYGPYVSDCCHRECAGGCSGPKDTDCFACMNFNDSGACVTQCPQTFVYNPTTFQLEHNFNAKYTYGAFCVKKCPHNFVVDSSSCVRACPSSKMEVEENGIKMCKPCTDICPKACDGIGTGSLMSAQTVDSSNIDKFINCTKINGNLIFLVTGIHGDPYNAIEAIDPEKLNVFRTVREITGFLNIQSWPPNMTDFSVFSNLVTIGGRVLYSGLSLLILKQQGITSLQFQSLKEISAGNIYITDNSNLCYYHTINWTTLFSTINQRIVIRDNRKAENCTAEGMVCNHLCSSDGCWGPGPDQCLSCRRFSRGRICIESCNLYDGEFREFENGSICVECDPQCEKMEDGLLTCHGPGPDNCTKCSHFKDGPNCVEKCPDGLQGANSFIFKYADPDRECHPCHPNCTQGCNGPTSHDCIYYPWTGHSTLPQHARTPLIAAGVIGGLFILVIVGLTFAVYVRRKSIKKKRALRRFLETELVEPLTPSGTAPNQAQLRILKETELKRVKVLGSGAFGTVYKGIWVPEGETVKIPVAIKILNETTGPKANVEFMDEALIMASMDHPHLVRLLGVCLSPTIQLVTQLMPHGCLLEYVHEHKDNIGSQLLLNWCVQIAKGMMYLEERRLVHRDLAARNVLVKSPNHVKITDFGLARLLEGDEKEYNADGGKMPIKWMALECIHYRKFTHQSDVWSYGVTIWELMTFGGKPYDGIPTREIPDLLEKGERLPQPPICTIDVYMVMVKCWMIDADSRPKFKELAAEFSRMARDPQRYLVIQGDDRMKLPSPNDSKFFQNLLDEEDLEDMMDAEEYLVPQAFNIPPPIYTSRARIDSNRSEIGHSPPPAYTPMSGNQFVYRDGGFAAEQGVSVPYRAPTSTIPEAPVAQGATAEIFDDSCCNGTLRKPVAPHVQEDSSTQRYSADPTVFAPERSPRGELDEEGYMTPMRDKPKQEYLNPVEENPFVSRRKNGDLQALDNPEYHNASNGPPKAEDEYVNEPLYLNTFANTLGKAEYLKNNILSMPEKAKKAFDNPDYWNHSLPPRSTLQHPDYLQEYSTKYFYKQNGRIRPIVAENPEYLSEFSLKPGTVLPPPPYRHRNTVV

[18] = molecular target: T18, Ret-1 (Homo sapiens, UniProt P07949); test: Kinase inhibition assay (33P transfer), Ret; settings: Table 6, Ret-1 kinase inhibition class
T18 construct: Kinases are expressed as either kinase domains or full length constructs; made in house

[19] = molecular target: T19, FGFR1 (Homo sapiens, UniProt P11362); test: Kinase inhibition assay (33P transfer), FGFR1; settings: read-out: FGFR1-1
T19 construct: Kinases are expressed as either kinase domains or full length constructs; made in house

IC50 [1] | IC50 [2] | IC50 [3] | IC50 [4] | IC50 [5] | IC50 [6] | IC50 [7] | IC50 [8] | IC50 [9] | IC50 [10] | IC50 [11] | IC50 [12] | IC50 [13] | IC50 [14] | IC50 [15] | IC50 [16] | IC50 [17] | IC50 [18] | IC50 [19] | Compound
1.01 to 6.04 µM | 6.04 to 8.81 µM | > 11.3 µM | > 11.3 µM | 1.01 to 6.04 µM | > 11.3 µM | 1.01 to 6.04 µM | > 11.3 µM | < 1.01 µM | > 11.3 µM | 1.01 to 6.04 µM | 8.81 to 11.3 µM | > 11.3 µM | 6.04 to 8.81 µM | 1.01 to 6.04 µM | > 11.3 µM | 1.01 to 6.04 µM | < 1.01 µM | > 11.3 µM | NC(=O)c1ccc(Nc2ncnc(-c3cccnc3NCc3ccccc3)n2)cc1 [Compound 1082]
4.24 to 6.19 µM | < 0.707 µM | > 7.96 µM | > 7.96 µM | > 7.96 µM | > 7.96 µM | > 7.96 µM | > 7.96 µM | < 0.707 µM | < 0.707 µM | > 7.96 µM | > 7.96 µM | > 7.96 µM | 4.24 to 6.19 µM | < 0.707 µM | > 7.96 µM | > 7.96 µM | < 0.707 µM | < 0.707 µM | COc1cc(Nc2ncnc(-n3c(NCc4ccccn4)nc4ccccc43)n2)cc(OC)c1OCCn1ccnn1 [Compound 942]
0.935 to 5.61 µM | 8.18 to 10.5 µM | > 10.5 µM | 5.61 to 8.18 µM | > 10.5 µM | 8.18 to 10.5 µM | 5.61 to 8.18 µM | 5.61 to 8.18 µM | < 0.935 µM | < 0.935 µM | 5.61 to 8.18 µM | 8.18 to 10.5 µM | > 10.5 µM | 0.935 to 5.61 µM | 0.935 to 5.61 µM | > 10.5 µM | > 10.5 µM | 5.61 to 8.18 µM | 0.935 to 5.61 µM | COc1cc(Nc2ncnc(-c3c(O)[nH]c4ccc(Cl)cc34)n2)cc(OC)c1OC [Compound 517]
< 0.982 µM | 0.982 to 5.89 µM | 0.982 to 5.89 µM | 0.982 to 5.89 µM | 8.59 to 11 µM | 0.982 to 5.89 µM | 0.982 to 5.89 µM | 0.982 to 5.89 µM | < 0.982 µM | < 0.982 µM | 0.982 to 5.89 µM | < 0.982 µM | > 11 µM | 5.89 to 8.59 µM | 0.982 to 5.89 µM | 8.59 to 11 µM | 0.982 to 5.89 µM | 0.982 to 5.89 µM | < 0.982 µM | COc1cc(Nc2ncnc(N3c4ccccc4CCC3C)n2)cc(OC)c1OC (centres unmarked) [Compound 612]
4.82 to 7.03 µM | > 9.04 µM | > 9.04 µM | > 9.04 µM | > 9.04 µM | > 9.04 µM | > 9.04 µM | > 9.04 µM | < 0.804 µM | 4.82 to 7.03 µM | > 9.04 µM | > 9.04 µM | > 9.04 µM | > 9.04 µM | 7.03 to 9.04 µM | > 9.04 µM | > 9.04 µM | < 0.804 µM | < 0.804 µM | COc1cc(Nc2ncnc(-n3c(NCc4ccc(C)cc4)nc4ccccc43)n2)cc(OC)c1OC [Compound 516]
